From article PMC6720452, “Structural Basis for Recruitment of DAPK1 to the KLHL20 E3 Ligase” (Structure(London, England:1993), 2019)

Legend:
Kelch domain of KLHL20 = molecular target: T1, Kelch domain of KLHL20 (Homo sapiens, UniProt Q9Y2M5); assay: Surface plasmon resonance, immobilized KLHL20; conditions: SPR, BIACORE S200, CM5 chip, amine coupling, 25°C, HBS-P buffer, 30 μL/min, peptide 1.6-200 μM, one-site steady-state affinity; representative of two independent experiments; N.B., no binding detected
T1 construct: human KLHL20 (Uniprot Q9Y2M5 isoform 1, M303-E605); hexahistidine tag with TEV cleavage site (N); made in house; host or cells: E. coli BL21(DE3)R3-pRARE2
T1 sequence (Q9Y2M5 303-605): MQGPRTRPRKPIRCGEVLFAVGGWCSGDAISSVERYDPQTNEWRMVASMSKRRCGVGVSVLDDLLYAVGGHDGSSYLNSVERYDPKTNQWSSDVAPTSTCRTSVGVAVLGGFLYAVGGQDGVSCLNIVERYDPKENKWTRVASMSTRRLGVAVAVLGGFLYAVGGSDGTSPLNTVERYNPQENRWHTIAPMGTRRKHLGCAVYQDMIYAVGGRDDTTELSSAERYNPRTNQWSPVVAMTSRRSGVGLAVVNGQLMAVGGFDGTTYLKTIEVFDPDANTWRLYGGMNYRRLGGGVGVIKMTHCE
Description: (C) For SPR experiments, KLHL20 and KLHL3 Kelch domains were immobilized by amine coupling on different flow cells of a CM5 sensor chip. Indicated DAPK1 peptides were injected subsequently at concentrations of 1.6 μM, 3.1 μM, 6.2 μM, 12.5 μM, 25 μM, 50 μM, 100 μM, and 200 μM. Binding was monitored at a flow rate of 30 μL/min. […] Data were fitted using a steady-state affinity equation.
Assays were performed at 25°C using a BIACORE S200 (GE Healthcare) surface plasmon resonance (SPR) instrument. The Kelch domains of KLHL20 and KLHL3 were immobilized on sensor chip CM5 (GE Healthcare) using amine coupling. […] Binding was monitored using a flow rate of 30 μL/min. The peptide analytes were prepared in HBS-P buffer (GE Healthcare). Data reported were after reference flow cell signal subtraction. Data were analyzed by one-site steady-state affinity analysis using the Biacore S200 Evaluation software and the fitting equation Req=CRmax/KD+C+RI . (RI, bulk refractive index contribution; Rmax, maximum response; KD, dissociation constant; C, analyte concentration).

Kelch domain of KEAP1 = conditions: ref Tong et al., 2006; cited from earlier work
Description: However, this is weaker than the low nanomolar binding observed for NRF2 interaction with the Kelch domain of KEAP1 ([Tong et al., 2006]). These differences may reflect the strict regulation of NRF2, which ensures its constitutive degradation, or the requirement for substrate co-adaptors as found for KLHL12 ([McGourty et al., 2016]). Alternatively, t ...

Row | KD (μM), Immobilized Protein: KLHL20 (Kelch domain of KLHL20) | Substance | Binding affinity for KEAP1 Kelch domain (Kelch domain of KEAP1)
1 | N.B | SKLRELGRRDAADFLLKA [DAPK1 peptide spanning the C-terminal site residues 1,378–1,395] | 
2 |  | NRF2: NRF2, interaction with the Kelch domain of KEAP1 | low nanomolar
